Test system: pig model of obstructive sleep apnea (OSA)
Assay: pig model of obstructive sleep apnea (OSA): upper airway collapsibility under negative pressure
Assay type: in vivo, German Landrace pigs
Details: anaesthetized pigs
Source text: The therapeutic potential of the compounds of formula (I) according to the present invention in sleep apnea has been assessed preclinically in a pig model of obstructive sleep apnea (OSA).
Using negative pressure, it is possible to induce collapse and thus obstruction of the upper respiratory tract in anaesthetized, spontaneously breathing pigs (Wirth K. J. et al., Sleep 36(5) (2013) pp. 699-708).
German Landrace pigs are used for the model. The pigs are anaesthetized and tracheotomized. Two tracheal cannulas are inserted into the trachea, one into the rostral part and the other into the caudal part of the trachea. Using a connection piece, the rostral cannula is connected to a tube to the negative pressure device and to the distal tracheal cannula. The distal tracheal cannula is additionally connected to a tube with an open end to atmosphere via a connection piece that served for free tracheal breathing, circumventing the upper airway. By appropriate opening and clamping of those tubes breathing can be switched from nasal breathing to breathing through the caudal tracheal cannula, circumventing the upper airway, and the (isolated) upper airway can be connected to the negative pressure device, causing airflow in the inspiratory direction.
At certain points in time, the collapsibility of the upper respiratory tract is tested by having the pig breathe via the caudal cannula and applying negative pressures of −50, −100 and −150 cm water head (cm H2O) to the upper respiratory tract. This causes the upper respiratory tract to collapse, which manifests itself in an interruption of the airflow and a pressure drop in the tube system. This test is conducted prior to the administration of the test substance and at certain intervals after the administration of the test substance. An appropriately effective test substance can prevent this collapse of the respiratory tract in the inspiratory phase.

Structure (SMILES): O=C(c1cnc(N2CC3(COC3)C2)nc1)N1CCC(N2CCc3ccccc3C2)CC1 [[4-(3,4-Dihydroisoquinolin-2(1H)-yl)piperidin-1-yl][2-(2-oxa-6-azaspiro[3.3]hept-6-yl)pyrimidin-5-yl]methanone]
- inhibited upper airway collapsibility, duration (i.v. bolus 0.007 mg/kg followed by i.v. infusion 0.0025 mg/kg/h for four hours, negative pressure −50 cm water head): up to two hours
- inhibited upper airway collapsibility, duration (i.v. bolus 0.007 mg/kg followed by i.v. infusion 0.0025 mg/kg/h for four hours, negative pressure −100 cm water head): up to 90 minutes
- inhibited upper airway collapsibility, duration (i.v. bolus 0.07 mg/kg followed by i.v. infusion 0.025 mg/kg/h for four hours, negative pressure −50 cm water head): up to four hours
- inhibited upper airway collapsibility, duration (i.v. bolus 0.07 mg/kg followed by i.v. infusion 0.025 mg/kg/h for four hours, negative pressure −100 cm water head): up to four hours
- inhibited upper airway collapsibility, duration (i.v. bolus 0.07 mg/kg followed by i.v. infusion 0.025 mg/kg/h for four hours, negative pressure −150 cm water head): up to two hours
